Patent US7109174B2, “Anticonvulsant derivatives useful for preventing the development of type II diabetes mellitus and syndrome X” (Ortho-McNeil Pharmaceutical, Inc., priority 2000, dated 2006)

Tested on: Female db/db mice
Experiment: Oral glucose tolerance test (fasted) in female db/db mice after 11 days oral dosing
Assay type: in vivo
Details: for Oral Glucose Tolerance Test (fasted) Plasma Glucose: ± sem
Experimental: Female db/db mice (C57BLK S/J-m^+/^+ Lepr^db Jackson Labs, Bar Harbor, Me.), 7–8 weeks of age, were housed four per cage in solid-bottomed shoe box cages. Room temperature was maintained at 68–72° F. and humidity at 50–65%. Room lighting was on a 12-hour light/12-hour dark cycle. The mice were maintained on NIH Rat and Mouse/Auto 6F reduced fat diet #5K52 (PMI Nutrition Int'l Inc.). Food and water were supplied ad libitum.
Test compound and vehicle were dosed orally and prepared as suspensions in 0.5% hydroxypropylmethylcellulose (Dow Chemical, Midland, Mich.). The dosing volume was 10 mL/kg of body weight.
Different groups of female db/db mice (7–8/group) were orally gavaged daily for 11 days with either 0.5% methylcellulose in dH2O (vehicle), topiramate at 30 or 100 mg/kg/day or 2,3:4,5-bis-O-(1-methylethylidene)-β-L-fructopyranose sulfamate (hereinafter referred to as Compound V) at 30 or 100 mg/kg/day. On day 10, the animals were fasted for 20 hours before being tested for oral glucose tolerance (OGT). On day 11, four hours after the final dose for each group, an oral glucose tolerance test (OGTT) was performed by oral glucose administration of 2 g/kg. Animals were bled through tail clip at 0 (before glucose), 30, 60 and 120 min after glucose challenge. The blood samples were collected into heparinized CB microvettes and then put on ice. The plasma samples will be assayed for plasma glucose determination by using SIGMA DIAGNOSTICS Trinder reagent (Sigma, St. Louis, Mo.). Statistical analysis was performed using the program Instat (Graphpad, Monrovia, Calif.) and performing one-way ANOVA with a Dunnett's multiple comparison test.
Following the above described procedure, the effect of topiramate and compound V on oral glucose tolerance in female db/db mice, 7 mice/group, was determined, with results as listed in Table 9. The abbreviation N represents the number of animals per study group.

`CC1(C)O[C@H]2[C@H](CO[C@]3(COS(N)(=O)=O)OC(C)(C)O[C@H]23)O1` [Compound V, 2,3:4,5-bis-O-(1-methylethylidene)-β-L-fructopyranose sulfamate] gave an Oral Glucose Tolerance Test (fasted) Plasma Glucose (30 mg/kg/day, 0 min (before glucose 2 g/kg)) of 221 ± 22.9 mg/dL, an Oral Glucose Tolerance Test (fasted) Plasma Glucose (30 mg/kg/day, 30 min after glucose 2 g/kg) of 441 ± 35.7 mg/dL and an Oral Glucose Tolerance Test (fasted) Plasma Glucose (30 mg/kg/day, 60 min after glucose 2 g/kg) of 244 ± 21.6 mg/dL. The Oral Glucose Tolerance Test (fasted) Plasma Glucose (30 mg/kg/day, 120 min after glucose 2 g/kg) was 213 ± 28.7 mg/dL, the Oral Glucose Tolerance Test (fasted) Plasma Glucose (100 mg/kg/day, 0 min (before glucose 2 g/kg)) was 152 ± 27.3 mg/dL and the Oral Glucose Tolerance Test (fasted) Plasma Glucose (100 mg/kg/day, 30 min after glucose 2 g/kg) was 449 ± 42.6 mg/dL. For the same compound, the Oral Glucose Tolerance Test (fasted) Plasma Glucose (100 mg/kg/day, 60 min after glucose 2 g/kg) was 319 ± 52.7 mg/dL, the Oral Glucose Tolerance Test (fasted) Plasma Glucose (100 mg/kg/day, 120 min after glucose 2 g/kg) was 153 ± 33 mg/dL and the “elevated blood glucose levels induced by oral glucose challenge” value (30 or 100 mg/kg/day) was “suppressed”. For the same compound, the fasting glucose levels (30 or 100 mg/kg/day) was “decreased”.
